Assay results from US12286401B2, “Small molecules that sensitize HIV-1 infected cells to antibody dependent cellular cytotoxicity” (THE TRUSTEES OF THE UNIVERSITY OF PENNSYLVANIA, priority 2018, dated 2025).
Values joined by “and” are separate entries in the source; they are usually repeats but may differ in a detail not shown here. Identical values can stand only once.

Tested on: HIV-1JR-FL EnvΔCT expressed at the surface of HOS cells
Assay: Cell-based ELISA (CBE), 17b readout
Conditions: for Fold over BNM-III-170 - 17b binding (±0.05): MCG analogs 50 μM, BNM-III-170 5 μM, 2G12 and DMSO normalized; for capacity to expose the CoRBS (17b binding, CBE): compounds 50 μM, result in words
In short: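 HOS cells transiently expressing cytoplasmic-tail-truncated HIV-1JR-FL Env were treated 30 min at room temperature with compounds (50 μM), sCD4 ([…]) or DMSO, then 1 h with 17b antibody. Bound 17b was detected by HRP-conjugated anti-Fc chemiluminescence; values are fold over BNM-III-170 (5 μM), normalized to 2G12 and DMSO.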

Row | SMILES | Fold over BNM-III-170 - 17b binding (±0.05) | capacity to expose the CoRBS (17b binding, CBE)
1 | CS(=O)(=O)N1CCC[C@H](C(=O)Nc2ccccc2Cl)C1 [(S)-MCG-III-027-C01] | 0.06 fold | 
2 | CS(=O)(=O)N1CCC[C@H](C(=O)Nc2cccc(C(F)(F)F)c2)C1 [(S)-MCG-III-027-B04] | 0.07 fold | 
3 | CS(=O)(=O)N1CCC[C@H](C(=O)Nc2ccc(F)cc2)C1 [(S)-MCG-III-027-A03] | 0.12 fold | 
4 | Cn1cnc(S(=O)(=O)N2CCC[C@H](C(=O)Nc3ccc(Cl)c(F)c3)C2)c1 [(S)-MCG-III-116-A02] | 0.24 fold | 
5 | O=C(Nc1ccc(Cl)c(F)c1)C1CCCOC1 (stereo not drawn) [MCG-III-207] | 0.48 fold | 
6 | CS(=O)(=O)N1CCC[C@H](C(=O)Nc2ccc(Br)cc2)C1 [(S)-MCG-III-027-A02] | 0.36 fold | 
7 | CS(=O)(=O)N1CCC[C@H](C(=O)Nc2cccc(Br)c2)C1 [(S)-MCG-III-027-B02] | 0.10 fold | 
8 | COc1cccc(NC(=O)[C@H]2CCCN(S(C)(=O)=O)C2)c1 [(S)-MCG-III-027-B05] | 0.06 fold | 
9 | CS(=O)(=O)N1CCC[C@H](C(=O)Nc2ccc(F)cc2F)C1 [(S)-MCG-III-027-D04] | 0.07 fold | 
10 | NCCNC(=O)N1CCC[C@H](C(=O)Nc2ccc(Cl)c(F)c2)C1 [(S)-MCG-IV-210] | 0.58 fold | higher activity
11 | O=C(Nc1ccc(Cl)c(F)c1)C1CCCN(S(=O)(=O)c2ccccc2)C1 (stereo not drawn) [MCG-III-157-B03] | 0.43 fold | 
12 | CS(=O)(=O)N1CCC[C@H](C(=O)Nc2ccc(Cl)c(F)c2)C1 [(S)-MCG-III-027-D05] | 0.46 fold and 0.58 fold | enhanced the capacity
13 | CS(=O)(=O)N1CCC[C@H](C(=O)Nc2cccc(Cl)c2)C1 [(S)-MCG-III-027-B01] | 0.10 fold | 
14 | CCCNC(=O)N1CCC[C@H](C(=O)Nc2ccc(Cl)c(F)c2)C1 [(S)-MCG-IV-031-A05] | 0.55 fold | higher activity
15 | CS(=O)(=O)N1CCC[C@H](C(=O)Nc2cccc(F)c2)C1 [(S)-MCG-III-027-B03] | 0.13 fold | 
16 | Cn1cnc(S(=O)(=O)N2CCCC(C(=O)Nc3ccc(Cl)c(F)c3)C2)c1 (stereo not drawn) [MCG-III-157-B04] | 0.69 fold | 
17 | COC(=O)N1CCC[C@H](C(=O)Nc2ccc(Cl)c(F)c2)C1 [(S)-MCG-III-188-A01] | 0.50 fold | higher activity
18 | CCOC(=O)N1CCC[C@H](C(=O)Nc2ccc(Cl)c(F)c2)C1 [(S)-MCG-III-188-A02] | 0.53 fold | higher activity
19 | CCS(=O)(=O)N1CCC[C@H](C(=O)Nc2ccc(Cl)c(F)c2)C1 [(S)-MCG-III-085-C01] | 0.35 fold | 
